Among the test systems are A549; ACHN; COLO 205; DU-145; EKVX; HOP-62; K562; LOX IMVI; NCI-H226; SF-268; SF-295; SR; SW-620; UACC-257; UACC-62; BT-549; IGROV-1; SK-MEL-28; SK-MEL-2; SNB-19.
Common to all, as to assay: inhibition of tumour cell growth, NCI panel, 48 h

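Five compound concentrations were applied to cells in 96-well plates for 48 hours; endpoints were derived by simple linear interpolation of the resulting dose-response curve. The concentration for 50% growth inhibition is given as GI50.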 The source made the active and inactive calls. Cut-off read from the data, not from the text of the source: active = GI50 up to about 1.1 µM and inactive = higher.

For `COC1CC(COCc2ccccc2)CC(OC)O1` (configuration not stated), the GI50 in the test on A549, with ACHN, in the test on COLO 205, in the test with DU-145, with EKVX and in the test with HOP-62 was > 100 µM (inactive) each time. Further, the GI50 in the test with K562 was > 100 µM (inactive); with LOX IMVI it was 64 µM (inactive); in the test with NCI-H226, > 100 µM (inactive); in the test with SF-268, > 100 µM (inactive); in the test with SF-295 it was > 100 µM (inactive); in the test with SR, > 100 µM (inactive). Besides, the GI50 with SW-620, in the test with UACC-257 and with UACC-62 was > 100 µM (inactive) each time.
As for `Cc1cc(S(=O)(=O)O)c(NC(=O)c2oc3cc(O)ccc3c(=O)c2C)cc1Cl`, the GI50 with A549, in the test on ACHN, in the test with BT-549, in the test on EKVX, in the test on HOP-62 and in the test on IGROV-1 was > 100 µM (inactive) each time. For the same molecule, the GI50 in the test with K562, in the test with LOX IMVI, with NCI-H226, in the test on SF-268, with SF-295 and in the test with SK-MEL-28 was > 100 µM (inactive) throughout. Besides, the GI50 in the test with SK-MEL-2 was > 100 µM (inactive); in the test on SNB-19, > 100 µM (inactive); in the test with SR, > 10 µM (inactive); in the test with SW-620, > 100 µM (inactive); in the test with UACC-257, > 100 µM (inactive); with UACC-62, > 100 µM (inactive).
As for `O=C(O)C12CCC(CC1=O)C2` (configuration not stated), the GI50 in the test with A549, in the test with ACHN, in the test on BT-549, in the test on COLO 205, with EKVX and with HOP-62 was > 100 µM (inactive) in each case. Besides, the GI50 with IGROV-1, with K562, with LOX IMVI, with NCI-H226, with SF-268 and in the test on SF-295 was > 100 µM (inactive) each time. Further, the GI50 with SK-MEL-28, in the test with SK-MEL-2, with SNB-19, in the test on SR, in the test with SW-620 and in the test with UACC-257 was > 100 µM (inactive) each time. Further, the GI50 in the test on UACC-62 is > 100 µM (inactive).
As for `Cc1ccc([N+](=O)[O-])c2c(NCCNC(=O)Cn3ccnc3[N+](=O)[O-])ccnc12`, the GI50 was 48.5 µM (inactive) with A549; 44.2 µM (inactive) in the test with ACHN; 41 µM (inactive) with COLO 205; 57.3 µM (inactive) in the test with DU-145; > 100 µM (inactive) in the test with EKVX; 20.7 µM (inactive) in the test on HOP-62. Also, the GI50 in the test with IGROV-1 is 25.6 µM (inactive); in the test with K562, 64.1 µM (inactive); in the test with LOX IMVI, 45.8 µM (inactive); in the test on NCI-H226, 26.2 µM (inactive); with SF-268, 36.5 µM (inactive); in the test on SF-295, 20.5 µM (inactive). For the same molecule, the GI50 in the test with SK-MEL-28 is 57.7 µM (inactive); in the test with SK-MEL-2 it was 43.6 µM (inactive); in the test on SNB-19, 28.9 µM (inactive); with SR it was > 100 µM (inactive); with SW-620 it was 37.7 µM (inactive); in the test with UACC-257, 29.1 µM (inactive). Also, in the test with UACC-62, the GI50 is 22.7 µM (inactive).
For the molecule `CC1CC(N2CCOCC2)=Nc2ccccc2N1C` (configuration not stated), the GI50 in the test with A549, with ACHN, in the test with BT-549, in the test on COLO 205, with DU-145 and with EKVX was > 100 µM (inactive) throughout. In addition, the GI50 in the test with HOP-62, in the test on IGROV-1, with K562, with NCI-H226, with SF-268 and with SF-295 was > 100 µM (inactive) throughout. For the same molecule, the GI50 in the test on SK-MEL-28, with SK-MEL-2, in the test on SNB-19, in the test with SW-620, with UACC-257 and in the test with UACC-62 was > 100 µM (inactive) each time.
For `CC(C)OC(=O)NNc1cc(Cl)ccc1Cl`, the GI50 in the test with A549 is 64 µM (inactive); in the test with ACHN, > 100 µM (inactive); in the test on BT-549 it was 64.3 µM (inactive); in the test on COLO 205, > 100 µM (inactive); in the test on DU-145, > 100 µM (inactive); in the test on EKVX, 30.8 µM (inactive). For the same molecule, the GI50 is > 100 µM (inactive) in the test with HOP-62; 55.5 µM (inactive) in the test with IGROV-1; 19.2 µM (inactive) with K562; 67.3 µM (inactive) in the test on LOX IMVI; 44.8 µM (inactive) in the test with SF-268; 62.8 µM (inactive) in the test on SF-295. Further, the GI50 in the test on SK-MEL-28 is > 100 µM (inactive); with SK-MEL-2 it was 65.8 µM (inactive); in the test on SNB-19, > 100 µM (inactive); in the test with SW-620, > 100 µM (inactive); in the test on UACC-257, 39.7 µM (inactive); with UACC-62, 43.7 µM (inactive).
With `CC(=O)OI1NC(=O)c2ccccc21`, the GI50 in the test on A549, with ACHN, with COLO 205, in the test on DU-145, in the test with EKVX and in the test on HOP-62 was > 100 µM (inactive) each time. Further, the GI50 in the test with IGROV-1, in the test on K562, in the test with LOX IMVI, in the test with NCI-H226, with SF-268 and in the test on SF-295 was > 100 µM (inactive) in each case. Further, the GI50 in the test on SK-MEL-28, in the test on SK-MEL-2, in the test on SNB-19, in the test with SR, in the test on SW-620 and with UACC-62 was > 100 µM (inactive) throughout.
Turning to `COC(=O)c1ccccc1/C=C1\Cc2cc(C)cc(C)c2C1=O`, the GI50 with A549 was > 100 µM (inactive); in the test on ACHN, > 100 µM (inactive); with DU-145 it was > 100 µM (inactive); in the test on EKVX, > 100 µM (inactive); in the test with HOP-62, 37.2 µM (inactive); in the test on IGROV-1, > 100 µM (inactive). The GI50 in the test with K562, with LOX IMVI, in the test on NCI-H226, in the test on SF-268, in the test on SF-295 and in the test on SK-MEL-28 was > 100 µM (inactive) throughout. Further, the GI50 in the test with SK-MEL-2 is > 100 µM (inactive); in the test on SNB-19, 72.4 µM (inactive); in the test with SR, > 100 µM (inactive); in the test with SW-620, > 100 µM (inactive); in the test on UACC-257 it was > 100 µM (inactive); in the test with UACC-62, 53.5 µM (inactive).
As to `N#CC(C#N)=c1c2ccccc2c(=C(C#N)C#N)c2ccccc12`, the GI50 in the test on A549 is 31 µM (inactive); with ACHN, 20 µM (inactive); in the test on BT-549, 23 µM (inactive); with COLO 205 it was 21.2 µM (inactive); in the test on HOP-62, 19.4 µM (inactive); in the test on IGROV-1 it was 12.8 µM (inactive). In addition, the GI50 was 19.9 µM (inactive) in the test with K562; 17.8 µM (inactive) in the test with LOX IMVI; 17.7 µM (inactive) in the test on NCI-H226; 22.9 µM (inactive) in the test on SF-268; 17.7 µM (inactive) with SK-MEL-28; 17.1 µM (inactive) with SK-MEL-2. The GI50 is 14.6 µM (inactive) with SNB-19, 24.8 µM (inactive) with SW-620, 23.1 µM (inactive) in the test on UACC-257 and 13.2 µM (inactive) with UACC-62.
With `O=C1c2ccsc2C(=O)c2sc(CO)cc21`, the GI50 in the test on A549 was 0.0507 µM (active); in the test with ACHN it was 0.0681 µM (active); with BT-549 it was 0.0182 µM (active); with COLO 205, 0.817 µM (active); with EKVX, 1.65 µM (inactive); in the test on HOP-62, 0.184 µM (active). Besides, the GI50 in the test with IGROV-1 was 0.627 µM (active); in the test with K562, 0.237 µM (active); with LOX IMVI, < 0.0176 µM (active); in the test with NCI-H226 it was 0.243 µM (active); with SF-268 it was 1.11 µM (active); in the test on SF-295, 0.628 µM (active). The GI50 with SK-MEL-28 was 0.0307 µM (active); with SK-MEL-2, 0.0929 µM (active); with SNB-19, 0.0929 µM (active); in the test with SR, 0.0984 µM (active); in the test with SW-620, 0.0564 µM (active); with UACC-257 it was 0.0456 µM (active). Also, the GI50 with UACC-62 was 0.0553 µM (active).
Turning to `COc1ccc(/C=C/c2cc(OC)cc(=O)o2)cc1` [YANGONIN], the GI50 was > 100 µM (inactive) in the test on A549; 61.7 µM (inactive) in the test with ACHN; > 100 µM (inactive) with COLO 205; 95.9 µM (inactive) in the test on DU-145; > 100 µM (inactive) with EKVX; 40 µM (inactive) in the test on HOP-62. Also, the GI50 was > 100 µM (inactive) with IGROV-1; 63.1 µM (inactive) with K562; > 100 µM (inactive) in the test with LOX IMVI; > 100 µM (inactive) with NCI-H226; 60.1 µM (inactive) in the test with SF-268; 37.2 µM (inactive) with SF-295. Also, the GI50 was > 100 µM (inactive) in the test with SK-MEL-28; 72.1 µM (inactive) in the test with SK-MEL-2; 50.4 µM (inactive) with SNB-19; > 100 µM (inactive) in the test with SR; > 100 µM (inactive) in the test on SW-620; > 100 µM (inactive) in the test with UACC-257. The GI50 with UACC-62 was 63.1 µM (inactive).

These data come from ChEMBL document CHEMBL1201862, “PubChem BioAssay data set” (2004).
